“And” between values parts separate entries of the source, which are not always exact repeats. Equal values may be shown once.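 Method: 48-hour compound exposure of cells in 96-well plates, five concentrations, linear interpolation of endpoints. Here, GI50 denotes the concentration required for 50% inhibition of growth. At the TGI there is no net growth.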
How the values were obtained:
Assay in all cases: NCI tumour cell line growth inhibition, 48 h
DU-145 prostate = system: DU-145 prostate
OVCAR-8 ovarian = system: OVCAR-8 ovarian
HCC-2998 colon = system: HCC-2998 colon
MALME-3M melanoma = system: MALME-3M melanoma
M14 melanoma = system: M14 melanoma
SF-268 CNS = system: SF-268 CNS
SNB-19 CNS = system: SNB-19 CNS
UACC-62 melanoma = system: UACC-62 melanoma

Structure (SMILES)	GI50 (DU-145 prostate)	TGI (DU-145 prostate)	GI50 (OVCAR-8 ovarian)	TGI (OVCAR-8 ovarian)	GI50 (HCC-2998 colon)	TGI (HCC-2998 colon)	GI50 (MALME-3M melanoma)	TGI (MALME-3M melanoma)	GI50 (M14 melanoma)	TGI (M14 melanoma)	GI50 (SF-268 CNS)	TGI (SF-268 CNS)	GI50 (SNB-19 CNS)	TGI (SNB-19 CNS)	GI50 (UACC-62 melanoma)	TGI (UACC-62 melanoma)
CN(C)CCCC(=O)Nc1ccc(Cn2nnc3c2C(=O)c2nnn(Cc4ccc(NC(=O)CCCN(C)C)cc4)c2C3=O)cc1	3.48 µM	10.6 µM	5.25 µM	29.3 µM	2.43 µM	5.22 µM	1.39 µM	2.94 µM	5.97 µM	24.3 µM	3.29 µM	12.8 µM				
CCCCc1nc2cc(/C=C/C(=O)NO)ccc2n1CCN(CC)CC	0.302 µM	4.64 µM	0.104 µM	5.54 µM	0.242 µM	1.23 µM	0.153 µM	22.2 µM	0.358 µM	5.32 µM	0.552 µM	7.55 µM	0.593 µM	12.2 µM	0.188 µM	0.743 µM
Oc1ccc(SCc2ccc(NCc3ccccc3)cc2)cc1		> 100 µM		> 100 µM		94.7 µM		> 100 µM		44.5 µM		> 100 µM		64.8 µM		76.4 µM
OC(C(=Nc1ccccc1)c1ccccc1)c1ccccc1 (stereo unspecified)		21.7 µM						7.01 µM		39.1 µM		17.4 µM		31.6 µM		15 µM
C=C(C(=O)OC)[C@@H]1C[C@@H](O)[C@]2(C)CC/C=C(\C)CCC[C@H](C)[C@H](O)C1O2	45.5 µM	> 100 µM	> 100 µM	> 100 µM	73 µM	> 100 µM			44 µM	> 100 µM	65 µM	> 100 µM	79.3 µM	> 100 µM	40.5 µM	> 100 µM
COc1ccc(Cn2cc(Cn3c(=O)c(-c4nc5ccccc5[nH]4)cc4ccccc43)nn2)c(OC)c1OC	0.22 µM	0.769 µM	0.213 µM and 0.486 µM		0.174 µM and 0.291 µM	1.2 µM and 2.07 µM	0.139 µM and 0.42 µM	0.985 µM and 2.8 µM			0.55 µM and 0.477 µM		0.423 µM	> 100 µM	0.672 µM	5.42 µM
CN1c2ccccc2C(C)(C)C12CC(c1ccc(Cl)c(S(=O)(=O)N3CCCC3)c1)=NO2 (stereo unspecified)	> 100 µM	> 100 µM	> 100 µM	> 100 µM	> 100 µM	> 100 µM	> 100 µM	> 100 µM	> 100 µM	> 100 µM	> 100 µM	> 100 µM	> 100 µM	> 100 µM		
CN1CCN(c2cc(Nc3cc(C4CC4)[nH]n3)nc(Nc3ccc(CC(=O)NCc4cccc(F)c4)cc3)n2)CC1	2.03 µM	11.5 µM	2.18 µM	30.1 µM	1.15 µM	12.1 µM	0.496 µM	4.55 µM	0.752 µM	2.41 µM	1.23 µM	12.3 µM	2.25 µM	23.4 µM	1.62 µM	16.2 µM
O=C(Nc1ccccc1F)c1ccc(NC2=C(Cl)C(=O)N(Cc3ccccc3)C2=O)cc1	2.11 µM	4.34 µM	2.84 µM	7.86 µM	15.7 µM	29.1 µM			4.02 µM	17 µM	2 µM	5.2 µM	11.6 µM	23.8 µM	4.39 µM	15.9 µM
CC(=O)OC1=C2C(CC3C4CC=C5CC(OC(C)=O)CCC5(C)C4CCC23C)C2C(=O)N(Cc3ccccc3)C(=O)C2C1 (stereo unspecified)	32.8 µM	> 100 µM	6.9 µM	> 100 µM	11.4 µM	67 µM	10.5 µM	> 100 µM	7.77 µM	75.3 µM	19.8 µM	> 100 µM	9.22 µM	> 100 µM	4.42 µM	34.3 µM
COc1cc(/C=C/C(=O)c2cc(OC)c(OC)c(OC)c2)cc(OC)c1OC	2.03 µM	5.95 µM	3.49 µM	> 100 µM	2.95 µM	6.65 µM	2.48 µM	19.6 µM	2.82 µM	12.7 µM	2.77 µM	10 µM	11 µM	27.3 µM	5.93 µM	20.4 µM
COc1ccc2sc3c(NCCCNCCO)nc4ccccc4c3c(=O)c2c1	1.6 µM	2.98 µM	1.65 µM	3.45 µM	1.68 µM	3.29 µM	1.69 µM	3.26 µM	1.82 µM	3.48 µM	1.52 µM	3.16 µM	1.65 µM	3.15 µM	1.7 µM	3.16 µM
O=[N+]([O-])c1ccc2c(c1)S(=O)c1ccccc1-2 (stereo unspecified)		> 100 µM		> 100 µM				> 100 µM		> 100 µM		> 100 µM		> 100 µM		> 100 µM
COC(=O)c1cc2c(cc1Cl)SC(N(N(C)C)S(=O)(=O)c1ccc(Cl)cc1)=NS2(=O)=O	13.7 µM	26.6 µM			16.1 µM	32.7 µM	13.8 µM	40 µM	15.8 µM	32 µM	20.1 µM	45.5 µM	17.3 µM	50.2 µM	17 µM	35.6 µM
COc1ccc(Nc2c[nH]c(=O)[nH]c2=O)cc1		> 100 µM		> 100 µM		> 100 µM		> 100 µM		> 100 µM				> 100 µM		> 100 µM
C1C[OH+]CC[OH+]CC[OH+]CC[OH+]CC[OH+]CC[OH+]1.[Cl-].[Ta+5]			> 100 µM	> 100 µM	> 100 µM	> 100 µM	> 100 µM	> 100 µM	> 100 µM	> 100 µM	> 100 µM	> 100 µM	24.3 µM	> 100 µM	> 100 µM	> 100 µM
CC(C)CC(=O)CC(O)C(Cl)(Cl)Cl (stereo unspecified)		> 100 µM		> 100 µM		> 100 µM		> 100 µM		> 100 µM				> 100 µM		> 100 µM
CS(=O)(=O)CS(=O)CS(=O)CS(=O)CC(NC(=O)CCC(N)C(=O)O)C(=O)O (stereo unspecified)		> 100 µM		> 100 µM		> 100 µM				> 100 µM		> 100 µM		> 100 µM		> 100 µM
COc1cccc2c(Nc3ccc(C(=O)NCCN(C)C)cc3)cc(-c3ccccc3)nc12	16.4 µM	33 µM	17.3 µM	42.7 µM	11.5 µM	24.9 µM	20 µM	40.2 µM	16.3 µM	30.5 µM					18.2 µM	32.5 µM
C=CCNc1cccc2c1C(=O)c1ccccc1C2(O)CC=C (stereo unspecified)	24.9 µM	63 µM	19.5 µM	47.1 µM	20.1 µM	37.4 µM			19 µM	41 µM	62.7 µM	> 100 µM	18.5 µM	44.7 µM	10.6 µM	24.4 µM
C=C1C(=O)O[C@H]2[C@H]1CC(=O)/C(C)=C\CC[C@@]1(C)O[C@@H]21	3.44 µg/mL	7.11 µg/mL	3.98 µg/mL	7.81 µg/mL	3.47 µg/mL	7.4 µg/mL			3.38 µg/mL	11.8 µg/mL	4.15 µg/mL	9.58 µg/mL	7.62 µg/mL	16.1 µg/mL	2.75 µg/mL	6.02 µg/mL
Clc1ccc(Nc2nc3ccccc3c3occc23)cc1	7.01 µM	13.5 µM	9.2 µM	20.9 µM	6.41 µM	12.7 µM			8.46 µM	16.9 µM	8.09 µM	16.7 µM	8.78 µM	16.2 µM	8.1 µM	18.3 µM
CCCCC#Cc1cccc(=O)o1	29.5 µM	> 100 µM	> 100 µM	> 100 µM			57.4 µM	> 100 µM	4.5 µM	> 100 µM	> 100 µM	> 100 µM	> 100 µM	> 100 µM	30 µM	> 100 µM
COc1ccc(-c2[nH]ncc2-c2cc(OC)c(OC)c(OC)c2)cc1	< 0.01 µM	1.64 µM	< 0.0124 µM	> 33.2 µM	0.0147 µM	19.2 µM			< 0.01 µM	0.852 µM	< 0.0127 µM	> 38.1 µM	< 0.01 µM	> 100 µM	< 0.01 µM	22.5 µM
Cc1ccc(-n2c(-c3ccc(Cl)cc3)cs/c2=N\NC(=O)COc2n[nH]c(=O)c3ccccc23)cc1	> 100 µM	> 100 µM	16.6 µM	> 100 µM			31.9 µM	> 100 µM	> 100 µM	> 100 µM	32.9 µM	> 100 µM	40 µM	> 100 µM	23.4 µM	> 100 µM
CCc1nc(N)nc(N)c1-c1ccc(Cl)c(N=NN(C)C)c1		> 100 µM		> 100 µM		62.9 µM				58.9 µM		> 100 µM		> 100 µM		76.8 µM
CC(C)(CCC(C)(C)c1ccccc1)c1ccccc1		38.5 µM		75.9 µM				30 µM		52.7 µM		33.3 µM		33.7 µM		41.4 µM
